The structures appear in SMILES notation. Read-outs that look alike come from different tables or passages of the source. Some results are limits rather than exact numbers.

The target in one data set is HSD17B1 (Homo sapiens (Human), UniProt P14061). The data set can be described thus: HSD17B1 enzymatic blocking assay. Format: biochemical. The note with it: 25 μM Estradiol, 500 μM NAD; read-out: Inhibition of HSD17B1 IC50. As to the method:
To screen compounds of the disclosure for their ability to block HSD17B1 function, an enzymatic blocking assay was performed. For the assay, HSD17B1 activity was measured by detecting NADH formation from oxidation of Estradiol using a NADH Glo luminescence assay (Promega, #Cat. No. G9062). […] Compounds were incubated with the enzyme for 30 minutes at room temperature. […] DMSO at a concentration of 0.5% was used as a negative control and a ‘no substrate’ control was used a positive control in the assay. Detection reagent was then added as per manufacturer's instructions, and the plate was subsequently incubated in the dark for 1 hour at room temperature, NADH generated was detected in the luminescence mode on the Envision Perkin Elmer plate reader. The IC50 values were determined using Dotmatics analysis software.

The nature of data set [1]: Microsome stability assay, human liver microsomes. Format: in vitro ADME. The note with it: 1 μM compound, 0.5 mg/mL microsomal protein; for microsomal CLint at 1 h, 1 µM / half-life at 1 h, 1 µM / microsomal CLint at 1 μM / half-life at 1 μM: human, human liver microsomes, pooled, NADPH, 37° C.; for microsomal CLint at 1 h, 1 µM / microsomal CLint at 1 μM: read-out: Microsome Stability Human liver microsomes Cl; for half-life at 1 h, 1 µM / half-life at 1 μM: read-out: Microsome Stability Human liver microsomes T½. The method in brief: (§1)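 Compound at 1 μM incubated at 37° C with pooled human or mouse liver microsomes (0.5 mg/mL protein) plus NADPH regenerating system, sampled at 0–60 min; a 60-min no-NADPH incubation also included. Single replicate; LC/MS/MS disappearance from analyte/internal standard peak area ratios, without standard curve.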
(In general: Liver microsomes are a subcellular fraction often used to study metabolism.)

Another data set concerns the target HSD17B2 (Homo sapiens (Human), UniProt P37059). The data set can be described thus: HSD17B2 enzymatic blocking assay. The data set is classed as biochemical. The following applies: 1.8 μM Estradiol, 650 μM NAD; read-out: Inhibition of HSD17B2 IC50. The method in brief:
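Mammalian-expressed enzyme at 2 ng/μL in 50 mM Tris-HCl pH 7.5 with detergents/BSA, preincubated 15 min at 20° C. with compound (10-point titration). Reaction with 1.8 μM estradiol and 650 μM NAD ran 45 min at 20° C.; NADH measured by NADH-Glo luminescence and IC50 derived.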

In another data set the target is HSD17B13 (Homo sapiens (Human), UniProt Q7Z5P4). Nature of the data set: HSD17B13 enzymatic inhibition assay (150 nM or 50 nM HSD17B13). Format: biochemical.
Sequence of HSD17B13 (Q7Z5P4 other isoform, or with tags, fused parts or gaps): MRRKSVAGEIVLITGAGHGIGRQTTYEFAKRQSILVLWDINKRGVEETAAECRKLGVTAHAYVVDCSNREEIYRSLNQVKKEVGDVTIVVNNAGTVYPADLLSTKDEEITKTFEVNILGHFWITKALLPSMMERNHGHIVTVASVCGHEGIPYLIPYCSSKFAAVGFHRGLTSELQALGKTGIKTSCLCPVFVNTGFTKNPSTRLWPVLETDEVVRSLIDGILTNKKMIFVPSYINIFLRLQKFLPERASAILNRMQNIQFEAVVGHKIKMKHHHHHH
Data set [2] is described as follows: Microsome stability assay, mouse liver microsomes. The data set is classed as in vitro ADME. The following applies: 1 μM compound, 0.5 mg/mL microsomal protein; for microsomal CLint at 1 h, 1 µM / half-life at 1 h, 1 µM: mouse, mouse liver microsomes, pooled, NADPH, 37° C.; for microsomal CLint at 1 h, 1 µM: read-out: Microsome Stability Mouse liver microsomes Cl; for half-life at 1 h, 1 µM: read-out: Microsome Stability Mouse liver microsomes T½. The method in brief: as §1

Setting [3] is: 50 nM HSD17B13, read-out: Inhibition of 50 nM of HSD17B13 IC50.

Sequence of HSD17B2 (P37059 other isoform, or with tags, fused parts or gaps): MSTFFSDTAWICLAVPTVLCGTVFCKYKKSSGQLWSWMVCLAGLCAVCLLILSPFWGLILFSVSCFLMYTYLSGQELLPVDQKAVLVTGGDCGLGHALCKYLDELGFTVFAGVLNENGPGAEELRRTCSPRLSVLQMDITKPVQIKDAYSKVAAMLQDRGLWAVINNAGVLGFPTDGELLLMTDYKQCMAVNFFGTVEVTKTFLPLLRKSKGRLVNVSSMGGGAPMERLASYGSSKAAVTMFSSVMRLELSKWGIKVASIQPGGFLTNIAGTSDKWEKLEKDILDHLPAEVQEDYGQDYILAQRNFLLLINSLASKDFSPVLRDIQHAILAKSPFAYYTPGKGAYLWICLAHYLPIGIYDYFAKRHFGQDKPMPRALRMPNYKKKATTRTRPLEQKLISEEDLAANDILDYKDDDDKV
Sequence of HSD17B1 (P14061 other isoform, or with tags, fused parts or gaps): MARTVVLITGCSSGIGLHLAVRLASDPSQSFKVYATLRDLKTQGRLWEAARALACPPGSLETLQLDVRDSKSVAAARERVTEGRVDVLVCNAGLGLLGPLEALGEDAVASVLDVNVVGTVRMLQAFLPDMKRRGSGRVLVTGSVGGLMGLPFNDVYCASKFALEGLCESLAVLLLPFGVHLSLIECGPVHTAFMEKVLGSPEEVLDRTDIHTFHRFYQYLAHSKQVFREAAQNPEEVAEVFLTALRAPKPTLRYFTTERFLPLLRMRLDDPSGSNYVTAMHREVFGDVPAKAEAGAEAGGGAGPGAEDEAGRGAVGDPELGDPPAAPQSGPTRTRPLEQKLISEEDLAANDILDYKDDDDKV

As a reminder, the IC50 is the concentration that gives 50% inhibition. On to `O=C(NC(c1ccccc1)c1ccc(-c2ccccc2)cc1)c1ccc(C(F)(F)F)[nH]c1=O` (stereo not drawn) [Compound 2, N-([1,1′-biphenyl]-4-yl(phenyl)methyl)-2-oxo-6-(trifluoromethyl)-1,2-dihydropyridine-3-carboxamide], for which the IC50 was greater than 30 µM on HSD17B1, 8.02 µM at HSD17B2 and 0.74 µM on HSD17B13 (setting [3]). The “Microsome Stability Human liver microsomes % Remaining @60 min” value in data set [1] is recorded as 3.40%. Moreover, the microsomal CLint at 1 h, 1 µM in data set [1] came out at 110 µL/min/mg. The half-life at 1 h, 1 µM in data set [1] worked out at 12.6 min.
As to `Cc1ccccc1C(NC(=O)c1ccc(C(F)(F)F)[nH]c1=O)c1ccccc1` (stereo not drawn) [Compound 5, N-(phenyl(o-tolyl)methyl)-2-oxo-6-(trifluoromethyl)-1,2-dihydropyridine-3-carboxamide], the IC50 at HSD17B1 is greater than 30 µM. Further, in data set [1], the “Microsome Stability Human liver microsomes % Remaining @60 min” value was determined as 16.00%; the microsomal CLint at 1 h, 1 µM was 52 µL/min/mg; the half-life at 1 h, 1 µM turned out to be 26.6 min. Moreover, the IC50 at HSD17B2 is 15.3 µM. Further, the IC50 on HSD17B13 (setting [3]) worked out at 0.85 µM.
As to `O=C(NC(c1ccccc1)c1ccccc1Cl)c1ccc(C(F)(F)F)[nH]c1=O` (stereo not drawn) [Compound 9, N-((2-chlorophenyl)(phenyl)methyl)-2-oxo-6-(trifluoromethyl)-1,2-dihydropyridine-3-carboxamide], at HSD17B1, the IC50 is greater than 30 µM. Moreover, in data set [1], the “Microsome Stability Human liver microsomes % Remaining @60 min” value is reported as 82.00%, the microsomal CLint at 1 μM was less than 9.6 µL/min/mg and the half-life at 1 μM was greater than 145 min. The IC50 at HSD17B2 came out at 8.48 µM. For the same compound, in data set [2], the “Microsome Stability Mouse liver microsomes % Remaining @60 min” value came out at 16.80%; the microsomal CLint at 1 h, 1 µM was 59.6 µL/min/mg; the half-life at 1 h, 1 µM came to 23.3 min.
With `Cc1ccc(C(NC(=O)c2ccc(C(F)(F)F)[nH]c2=O)c2ccc(C)cc2)cc1` [Compound 15, N-(di-p-tolylmethyl)-2-oxo-6-(trifluoromethyl)-1,2-dihydropyridine-3-carboxamide], on HSD17B1, the half-inhibitory concentration (IC50) was greater than 30 µM. Besides, in data set [1], the “Microsome Stability Human liver microsomes % Remaining @60 min” value is 41.70%; the microsomal CLint at 1 h, 1 µM stood at 30.2 µL/min/mg; the half-life at 1 h, 1 µM was determined as 45.9 min. The IC50 on HSD17B2 was found to be 11.2 µM. Further, in data set [2], the “Microsome Stability Mouse liver microsomes % Remaining @60 min” value is recorded as 5.60%; the microsomal CLint at 1 h, 1 µM was determined as 96.8 µL/min/mg; the half-life at 1 h, 1 µM came out at 14.3 min. Moreover, the IC50 on HSD17B13 (setting [3]) was determined as 0.26 µM.
On to `O=C(NC(c1ccc(Cl)cc1)c1ccc(Cl)cc1)c1ccc(C(F)(F)F)[nH]c1=O` [Compound 17, N-(bis(4-chlorophenyl)methyl)-2-oxo-6-(trifluoromethyl)-1,2-dihydropyridine-3-carboxamide], for which the half-inhibitory concentration (IC50) on HSD17B1 was greater than 30 µM. Further, in data set [1], the “Microsome Stability Human liver microsomes % Remaining @60 min” value is reported as 97.60%, the microsomal CLint at 1 μM is less than 9.6 µL/min/mg and the half-life at 1 μM is greater than 145 min. In addition, at HSD17B2, the IC50 was determined as 10.9 µM. For the same compound, in data set [2], the “Microsome Stability Mouse liver microsomes % Remaining @60 min” value is 70.60%; the microsomal CLint at 1 h, 1 µM was 10.2 µL/min/mg; the half-life at 1 h, 1 µM was found to be 136 min. Besides, the IC50 at HSD17B13 (setting [3]) was determined as 0.96 µM.
For `O=C(NC(c1ccccc1)c1ccc(Cl)cc1)c1ccc(C(F)(F)F)[nH]c1=O` (stereo not drawn) [Compound 21, N-((4-chlorophenyl)(phenyl)methyl)-2-oxo-6-(trifluoromethyl)-1,2-dihydropyridine-3-carboxamide], the values for the IC50 at HSD17B1, on HSD17B2 and at HSD17B13 (setting [3]) were greater than 30 µM, 12 µM and 0.75 µM, respectively. The “Microsome Stability Human liver microsomes % Remaining @60 min” value in data set [1] came out at 73.00%. In data set [1], the microsomal CLint at 1 h, 1 µM came to 10.8 µL/min/mg. For the same compound, the half-life at 1 h, 1 µM in data set [1] came to 128 min.
As to `O=C(NC1c2ccccc2-c2ccccc21)c1ccc(C(F)(F)F)[nH]c1=O` [Compound 25, N-(9H-fluoren-9-yl)-2-oxo-6-(trifluoromethyl)-1,2-dihydropyridine-3-carboxamide], on HSD17B1, the IC50 was greater than 30 µM. Further, in data set [1], the “Microsome Stability Human liver microsomes % Remaining @60 min” value stood at 1.00%; the microsomal CLint at 1 h, 1 µM stood at 265 µL/min/mg; the half-life at 1 h, 1 µM worked out at 5.22 min. Also, at HSD17B2, the IC50 came out at 18.2 µM. On HSD17B13 (setting [3]), the IC50 came to 0.53 µM.
As to `Cc1ccc(C(NC(=O)c2ccc(C(F)(F)F)[nH]c2=O)c2ccccc2)cc1` (stereo not drawn) [Compound 27, N-(phenyl(p-tolyl)methyl)-2-oxo-6-(trifluoromethyl)-1,2-dihydropyridine-3-carboxamide], the IC50 at HSD17B1 was greater than 30 µM; on HSD17B2 it was 16.8 µM; at HSD17B13 (setting [3]), 1.06 µM; at HSD17B13 (150 nM HSD17B13, read-out: Inhibition of 150 nM of HSD17B13 IC50), 0.47 µM. In addition, the “Microsome Stability Human liver microsomes % Remaining @60 min” value in data set [1] came to 0.40%. In addition, the microsomal CLint at 1 h, 1 µM in data set [1] came to 511 µL/min/mg. Further, in data set [1], the half-life at 1 h, 1 µM worked out at 2.71 min.
On to `Cc1ccc2c(c1)Oc1cc(C)ccc1C2NC(=O)c1cc(-c2cnccn2)c(C(F)(F)F)[nH]c1=O` [Compound 508, N-(3,6-dimethyl-9H-xanthen-9-yl)-2-oxo-5-(pyrazin-2-yl)-6-(trifluoromethyl)-1,2-dihydropyridine-3-carboxamide], for which the IC50 on HSD17B1 was determined as 3.3 µM; on HSD17B2, 45.8 µM; at HSD17B13 (setting [3]), 0.02 µM.
On to `Cc1ccc2c(c1)Oc1cc(C)ccc1C2NC(=O)c1cc(-c2ncccn2)c(C(F)(F)F)[nH]c1=O` [Compound 509, N-(3,6-dimethyl-9H-xanthen-9-yl)-2-oxo-5-(pyrimidin-2-yl)-6-(trifluoromethyl)-1,2-dihydropyridine-3-carboxamide], for which the values for the IC50 on HSD17B1, on HSD17B2 and at HSD17B13 (setting [3]) were 3.48 µM, 11.9 µM and 0.01 µM, respectively.
Turning to `Cc1ccc2c(c1)Oc1cc(C)ccc1C2NC(=O)c1cc(-c2ccccn2)c(C(F)(F)F)[nH]c1=O` [Compound 510, N-(3,6-dimethyl-9H-xanthen-9-yl)-6′-oxo-2′-(trifluoromethyl)-1′,6′ dihydro-[2,3′-bipyridine]-5′-carboxamide], the IC50 on HSD17B1 was 2.19 µM; on HSD17B2 it was 5.53 µM; at HSD17B13 (setting [3]), 0.02 µM.
With `C=CCc1cc(C(=O)NC2c3ccc(C)cc3Oc3cc(C)ccc32)c(=O)[nH]c1C(F)(F)F` [Compound 511, 5-allyl-N-(3,6-dimethyl-9H-xanthen-9-yl)-2-oxo-6-(trifluoromethyl)-1,2-dihydropyridine-3-carboxamide], the concentration for half-maximal inhibition (IC50) on HSD17B1 worked out at 6.13 µM; on HSD17B2 it was 16.2 µM; on HSD17B13 (setting [3]), 0.05 µM.
With `CN1c2ccccc2C(NC(=O)c2ccc(C(F)(F)F)[nH]c2=O)c2ccccc21` [Compound 519, N-(10-methyl-9,10-dihydroacridin-9-yl)-2-oxo-6-(trifluoromethyl)-1,2-dihydropyridine-3-carboxamide], the 50% inhibitory concentration (IC50) is 7.22 µM on HSD17B1, greater than 100 µM at HSD17B2 and 1.35 µM at HSD17B13 (setting [3]).
For `Cc1ccc2c(c1)Oc1cc(C)ccc1C2NC(=O)c1cc(CCc2ccccc2)c(C(F)(F)F)[nH]c1=O` [Compound 520, N-(3,6-dimethyl-9H-xanthen-9-yl)-2-oxo-5-phenethyl-6-(trifluoromethyl)-1,2-dihydropyridine-3-carboxamide], in that order: 13.7 µM, 25.3 µM and 0.02 µM.
For `CCCc1cc(C(=O)NC2c3ccc(C)cc3Oc3cc(C)ccc32)c(=O)[nH]c1C(F)(F)F` [Compound 521, N-(3,6-dimethyl-9H-xanthen-9-yl)-2-oxo-5-propyl-6-(trifluoromethyl)-1,2-dihydropyridine-3-carboxamide], the IC50 is 7.42 µM at HSD17B1, 29.2 µM on HSD17B2 and 0.02 µM on HSD17B13 (setting [3]).
Regarding `N#Cc1ccc2c(c1)Oc1ccccc1C2NC(=O)c1ccc(C(F)(F)F)[nH]c1=O` (stereo not drawn) [Compound 528, N-(3-cyano-9H-xanthen-9-yl)-2-oxo-6-(trifluoromethyl)-1,2-dihydropyridine-3-carboxamide], the IC50 at HSD17B1 came to 17 µM; on HSD17B2, 23.2 µM; at HSD17B13 (setting [3]), 0.09 µM.

Source of the values: patent US11957687B2 (REGENERON PHARMACEUTICALS, INC., priority 2019, dated 2024).
